Patent US20250091992A1, “NOVEL COMPOUNDS AND USES THEREOF” (KANNA HEALTH LIMITED, priority 2021, published 2025)

Experiments:
[1] = biological target: human recombinant PDE-4B1 (Homo sapiens, UniProt Q07343); assay: PDE4-B1 assay (Compounds of Formula I), SPA; assay type: biochemical; conditions: for IC50: 4-parameter logistical fit, two technical replicates; for inhibition at 30 µM: relative to Ro 20-1724
Description: (§1) 20 mins after addition of human recombinant PDE-4B1 (1.2 IEU) or PDE-4D2 (1.5 IEU), SPA beads were added and incubated at 22° C. for a further 30 mins. [^3H]5′AMP was quantified by a standard scintillation counting method.

[2] = biological target: human serotonin transporter (Homo sapiens, UniProt P31645); conditions: for inhibition: 10 µM;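 on all read-outs here: Read-out: uptake of tritium-labelled serotonin, measured by scintillation counting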
Sequence of human serotonin transporter (P31645 whole entry): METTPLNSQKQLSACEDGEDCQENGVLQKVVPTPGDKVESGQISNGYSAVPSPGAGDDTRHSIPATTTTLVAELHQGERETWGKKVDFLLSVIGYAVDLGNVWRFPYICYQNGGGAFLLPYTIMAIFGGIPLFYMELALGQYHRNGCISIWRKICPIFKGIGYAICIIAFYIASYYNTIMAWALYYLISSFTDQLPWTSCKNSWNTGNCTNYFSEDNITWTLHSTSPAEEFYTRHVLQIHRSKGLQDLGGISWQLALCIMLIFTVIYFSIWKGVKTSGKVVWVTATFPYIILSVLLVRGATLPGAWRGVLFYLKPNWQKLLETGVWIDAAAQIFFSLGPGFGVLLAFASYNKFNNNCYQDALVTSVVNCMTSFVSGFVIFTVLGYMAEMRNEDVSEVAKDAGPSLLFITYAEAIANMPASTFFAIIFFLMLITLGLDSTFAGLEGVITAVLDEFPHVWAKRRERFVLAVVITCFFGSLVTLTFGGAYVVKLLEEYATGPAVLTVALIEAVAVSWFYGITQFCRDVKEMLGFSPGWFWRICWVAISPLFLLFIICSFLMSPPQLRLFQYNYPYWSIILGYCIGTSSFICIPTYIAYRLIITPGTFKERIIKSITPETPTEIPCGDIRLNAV
Description: Following incubation, [^3H] serotonin uptake was quantified by a standard scintillation counting method.

[3] = biological target: human recombinant PDE-4D2 (Homo sapiens, UniProt Q08499); assay: PDE4-D2 assay (Compounds of Formula I), SPA; assay type: biochemical; conditions: for IC50: 4-parameter logistical fit, two technical replicates; for inhibition at 30 µM: relative to Ro 20-1724
Sequence of human recombinant PDE-4D2 (Q08499 303-809): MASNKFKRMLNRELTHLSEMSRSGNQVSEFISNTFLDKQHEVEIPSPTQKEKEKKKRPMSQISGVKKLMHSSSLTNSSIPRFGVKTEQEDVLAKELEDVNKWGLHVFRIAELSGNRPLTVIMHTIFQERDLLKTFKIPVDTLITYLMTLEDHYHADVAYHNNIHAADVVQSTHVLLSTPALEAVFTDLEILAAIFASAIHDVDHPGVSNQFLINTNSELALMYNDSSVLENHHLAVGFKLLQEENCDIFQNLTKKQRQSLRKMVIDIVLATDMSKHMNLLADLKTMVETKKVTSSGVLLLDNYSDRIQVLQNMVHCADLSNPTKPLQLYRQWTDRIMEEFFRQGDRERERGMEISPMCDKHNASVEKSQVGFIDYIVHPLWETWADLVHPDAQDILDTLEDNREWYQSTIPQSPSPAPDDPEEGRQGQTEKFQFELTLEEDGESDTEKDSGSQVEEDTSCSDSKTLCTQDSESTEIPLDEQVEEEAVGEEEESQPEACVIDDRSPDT
Description: as §1

hSERT = biological target: T1, hSERT (Homo sapiens, UniProt P31645); assay: SERT assay (Compounds of Formula II), transporter uptake assay kit; assay type: cell-based
T1 construct: expressed in transfected cells
T1 sequence (P31645 whole entry): as the sequence (P31645 whole entry) above
Description: SERT assays were performed using a standard transporter uptake assay kit, (Molecular devices, (R8174)). In short, test compounds (10 nM-30 μM), reference compound or vehicle control were added to cells stably expressing hSERT (20,000/well) in assay buffer containing HBSS (20 mM) and BSA (0.1% (w/v)) for 30 mins at 30° C. Assay plates were incubated in the presence of dye for a further 60 mins at 37° C. and intracellular fluorescence intensity was determined.

PDE-4A1A = biological target: T2, PDE-4A1A (Homo sapiens, UniProt P27815); assay: PDE-41A assay (Compounds of Formula II), AMP-Glo; assay type: biochemical
T2 construct: purchased Sigma SRP0262
T2 sequence (P27815 1-647 isoform P27815-4): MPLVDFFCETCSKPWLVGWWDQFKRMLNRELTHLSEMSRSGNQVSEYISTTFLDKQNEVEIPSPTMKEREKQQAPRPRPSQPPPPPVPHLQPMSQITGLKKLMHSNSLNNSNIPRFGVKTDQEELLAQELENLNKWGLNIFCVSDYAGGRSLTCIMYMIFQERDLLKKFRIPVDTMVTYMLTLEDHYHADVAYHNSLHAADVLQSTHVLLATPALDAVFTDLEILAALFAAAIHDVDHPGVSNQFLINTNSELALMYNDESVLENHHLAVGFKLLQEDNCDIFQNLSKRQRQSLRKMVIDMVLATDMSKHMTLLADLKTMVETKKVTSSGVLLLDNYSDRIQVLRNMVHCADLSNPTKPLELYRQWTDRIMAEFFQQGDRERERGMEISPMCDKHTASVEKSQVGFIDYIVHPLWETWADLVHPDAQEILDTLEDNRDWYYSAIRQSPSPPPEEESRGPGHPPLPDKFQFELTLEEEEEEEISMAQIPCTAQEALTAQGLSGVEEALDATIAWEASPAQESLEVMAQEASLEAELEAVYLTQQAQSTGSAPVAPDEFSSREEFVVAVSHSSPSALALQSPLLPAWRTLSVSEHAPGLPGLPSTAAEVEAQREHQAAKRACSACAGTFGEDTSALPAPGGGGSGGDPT
Description: PDE-41A assays were performed using the AMP-Glo™ Assay Kit, (Promega-V5012) human recombinant […] (Sigma, SRP0262) according to recommended protocols. […]

Sequence of human recombinant PDE-4B1 (Q07343 whole entry): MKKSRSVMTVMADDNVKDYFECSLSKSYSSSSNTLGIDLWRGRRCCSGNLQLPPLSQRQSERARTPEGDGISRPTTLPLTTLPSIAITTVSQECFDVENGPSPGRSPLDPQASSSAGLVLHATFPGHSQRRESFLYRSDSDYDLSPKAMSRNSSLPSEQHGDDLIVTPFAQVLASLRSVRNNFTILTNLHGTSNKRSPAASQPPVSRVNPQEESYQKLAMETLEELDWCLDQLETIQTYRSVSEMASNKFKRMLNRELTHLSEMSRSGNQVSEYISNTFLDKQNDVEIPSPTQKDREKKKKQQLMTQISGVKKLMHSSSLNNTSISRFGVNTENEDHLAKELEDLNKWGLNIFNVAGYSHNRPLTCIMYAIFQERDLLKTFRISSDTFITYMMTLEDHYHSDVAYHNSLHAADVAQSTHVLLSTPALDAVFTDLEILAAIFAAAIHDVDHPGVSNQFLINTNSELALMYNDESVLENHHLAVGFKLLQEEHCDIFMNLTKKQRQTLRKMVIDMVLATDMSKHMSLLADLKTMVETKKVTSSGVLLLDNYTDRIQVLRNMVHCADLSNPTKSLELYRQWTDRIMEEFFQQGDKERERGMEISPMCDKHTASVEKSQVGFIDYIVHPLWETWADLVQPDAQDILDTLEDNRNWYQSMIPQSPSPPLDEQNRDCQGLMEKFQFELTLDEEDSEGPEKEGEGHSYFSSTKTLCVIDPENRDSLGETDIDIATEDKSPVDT

Row | SMILES | inhibition at 30 µM [1] [%] | inhibition [2] [%] | inhibition at 30 µM [3] [%] | inhibition at 1 µM (hSERT) [%] | inhibition at 3 µM (hSERT) [%] | inhibition at 30 µM (PDE-4A1A) [%] | inhibition at 100 µM (PDE-4A1A) [%] | also measured
1 | CCSc1cc([C@@]23CCC(=O)C[C@@H]2N(C)CC3)ccc1OC [Compound 3] |  |  |  |  |  |  |  | IC50 [1]: 5.2 µM; IC50 [2]: 0.005 µM; IC50 [3]: 1.3 µM
2 | COc1ccc([C@@]23CCC(=O)C[C@@H]2N(C)CC3)cc1OCC(F)F [Compound 7] |  |  |  |  |  |  |  | IC50 [2]: 0.02 µM
3 | COc1ccc([C@@]23CCC(=O)C[C@@H]2N(C)CC3)cc1O [Compound 10] |  |  |  |  |  |  |  | IC50 [1]: > 30 µM; IC50 [2]: 0.3 µM; IC50 [3]: > 30 µM
4 | COc1ccc([C@@]23CCC(=O)C[C@@H]2N(C)CC3)cc1OC1CCCCC1 [Compound 14] | 94 | 59 | 97 |  |  |  |  | 
5 | CCOc1ccc([C@@]23CCC(=O)C[C@@H]2N(C)CC3)cc1O [Compound 16] | -1 | 98 | 3 |  |  |  |  | 
6 | CCOc1ccc([C@@]23CCC(=O)C[C@@H]2N(C)CC3)cc1SC [Compound 17] | 61 | 99 | 74 |  |  |  |  | 
7 | CC(C)Oc1ccc([C@@]23CCC(=O)C[C@@H]2N(C)CC3)cc1O [Compound 18] | -4 | 86 | -3 |  |  |  |  | 
8 | COc1cc([C@@]23CCC(=O)C[C@@H]2N(C)CC3)ccc1OC(C)C [Compound 19] | 1 | 99 | 3 |  |  |  |  | 
9 | CCCCOc1cc([C@@]23CCC(=O)C[C@@H]2N(C)CC3)ccc1OCC [Compound 20] | 83 | 100 | 92 |  |  |  |  | 
10 | CC(C)Oc1ccc([C@@]23CCC(=O)C[C@@H]2N(C)CC3)cc1OCC1CC1 [Compound 22] | 38 | 91 | 37 |  |  |  |  | 
11 | CCOc1ccc([C@@]23CCC(=O)C[C@@H]2N(C)CC3)cc1OC1CCCCC1 [Compound 23] | 88 | 77 | 93 |  |  |  |  | 
12 | CSc1cc([C@@]23CCC(=O)C[C@@H]2N(C)CC3)ccc1OC(C)C [Compound 25] |  |  |  |  |  |  |  | IC50 [1]: > 30 µM; IC50 [3]: > 30 µM
13 | CC(C)Oc1ccc([C@@]23CCC(=O)C[C@@H]2N(C)CC3)cc1OC1CCCCC1 [Compound 26] | 26 | 81 | 20 |  |  |  |  | 
14 | CC(C)Oc1ccc([C@@]23CCC(=O)C[C@@H]2N(C)CC3)cc1OC1CCCC1 [Compound 28] | 53 | 98 | 55 |  |  |  |  | 
15 | CCOc1cc([C@@]23CCC(=O)C[C@@H]2N(C)CC3)ccc1OC(C)C [Compound 29] | 40 | 99 | 32 |  |  |  |  | 
16 | CCCCOc1cc([C@@]23CCC(=O)C[C@@H]2N(C)CC3)ccc1OC(C)C [Compound 30] | 24 | 95 | 31 |  |  |  |  | 
17 | CN1CC[C@]2(c3ccc(OCC4CC4)c(O)c3)CCC(=O)C[C@H]12 [Compound 33] |  |  |  |  |  |  |  | IC50 [1]: > 30 µM; IC50 [2]: 2.1 µM; IC50 [3]: > 30 µM
18 | COc1cc([C@@]23CCC(=O)C[C@@H]2N(C)CC3)ccc1OCC1CC1 [Compound 34] |  |  |  |  |  |  |  | IC50 [1]: > 30 µM; IC50 [2]: 0.9 µM; IC50 [3]: > 30 µM
19 | CCOc1cc([C@@]23CCC(=O)C[C@@H]2N(C)CC3)ccc1OCC1CC1 [Compound 35] |  |  |  |  |  |  |  | IC50 [1]: > 30 µM; IC50 [2]: 0.2 µM; IC50 [3]: > 30 µM

Row | SMILES | inhibition at 30 µM [1] [%] | inhibition [2] [%] | inhibition at 30 µM [3] [%] | inhibition at 1 µM (hSERT) [%] | inhibition at 3 µM (hSERT) [%] | inhibition at 30 µM (PDE-4A1A) [%] | inhibition at 100 µM (PDE-4A1A) [%] | also measured
20 | CN1CC[C@]2(c3ccc(OCC4CC4)c(OCC4CC4)c3)CCC(=O)C[C@H]12 [Compound 36] |  |  |  |  |  |  |  | IC50 [1]: > 30 µM; IC50 [2]: 0.4 µM; IC50 [3]: > 30 µM
21 | COc1ccc([C@]23CCC(=O)C[C@H]2N(C)CC3)cc1OC [Compound 45] |  |  |  |  |  |  |  | IC50 [3]: < 3 µM
22 | COc1ccc([C@@]23CC[C@@H](OC(=O)CCC(=O)O)C[C@@H]2N(C)CC3)cc1OC [Compound 46] |  |  |  | 81 | 94 | 53 | 79 | 
23 | COc1ccc([C@@]23CC[C@@H](OC(=O)CCCC(=O)O)C[C@@H]2N(C)CC3)cc1OC [Compound 47] |  |  |  | 90 | 94 | 40 | 88 | 
24 | COc1ccc([C@@]23CC[C@@H](OC(=O)CN)C[C@@H]2N(C)CC3)cc1OC [Compound 48] |  |  |  | 93 | 101 | -8 | 48 | 
25 | COc1ccc([C@@]23CC[C@@H](OC(=O)C(C)N)C[C@@H]2N(C)CC3)cc1OC (some centres unmarked) [Compound 49] |  |  |  | 95 | 97 | 87 | 86 | 
26 | CCC(=O)O[C@@H]1CC[C@@]2(c3ccc(OC)c(OC)c3)CCN(C)[C@H]2C1 [Compound 50] |  |  |  | 98 | 98 | 92 | 101 | 
27 | COc1ccc([C@@]23CC[C@@H](OC(=O)C(C)C)C[C@@H]2N(C)CC3)cc1OC [Compound 51] |  |  |  | 99 | 98 | 95 | 99 | 
28 | COc1ccc([C@@]23CC[C@@H](OC(=O)c4ccccc4)C[C@@H]2N(C)CC3)cc1OC [Compound 52] |  |  |  | 91 | 91 | 97 | 99 | 
29 | COc1ccc([C@@]23CC[C@@H](OC(=O)c4ccc[nH]4)C[C@@H]2N(C)CC3)cc1OC [Compound 53] |  |  |  | 99 | 98 | 94 | 97 | 
30 | COc1ccc([C@@]23C=C[C@@H](OC(=O)CCC(=O)O)C[C@@H]2N(C)CC3)cc1OC [Compound 54] |  |  |  | 78 | 98 | 98 | 101 | 
31 | COc1ccc([C@@]23C=C[C@@H](OC(=O)CCCC(=O)O)C[C@@H]2N(C)CC3)cc1OC [Compound 55] |  |  |  | 67 | 97 | 100 | 95 | 
32 | COc1ccc([C@@]23C=C[C@@H](OC(=O)CN)C[C@@H]2N(C)CC3)cc1OC [Compound 56] |  |  |  | 86 | 99 | 74 | 102 | 
33 | COc1ccc([C@@]23C=C[C@@H](OC(=O)C(C)N)C[C@@H]2N(C)CC3)cc1OC (some centres unmarked) [Compound 57] |  |  |  | 86 | 97 | 101 | 102 | 
34 | CCC(=O)O[C@@H]1C=C[C@@]2(c3ccc(OC)c(OC)c3)CCN(C)[C@H]2C1 [Compound 58] |  |  |  | 98 | 98 | 103 | 100 | 
35 | COc1ccc([C@@]23C=C[C@@H](OC(=O)C(C)C)C[C@@H]2N(C)CC3)cc1OC [Compound 59] |  |  |  | 99 | 97 | 100 | 100 | 
36 | COc1ccc([C@@]23C=C[C@@H](OC(=O)c4ccccc4)C[C@@H]2N(C)CC3)cc1OC [Compound 60] |  |  |  | 92 | 95 | 98 | 100 | 
37 | COc1ccc([C@@]23C=C[C@@H](OC(=O)c4ccc[nH]4)C[C@@H]2N(C)CC3)cc1OC [Compound 61] |  |  |  | 101 | 106 | 94 | 90 | 
